Patent US9937192B2, “Combination therapy to treat mycobacterium diseases” (priority 2012, dated 2018)
Counter-ions that a name gives are not always drawn. Like-named read-outs stand apart in the source and are kept apart here.

Columns and labels:
[1] = tested on: Mycobacterium tuberculosis; assay: Mycobacterium tuberculosis Serum Shift MIC Assay (Protocol 5); format: cell-based; settings: ATCC 35801 / ERDMAN
Text: Protocol 5. Protocol for Mycobacterium tuberculosis Serum Shift MIC Assay
Media Prep: • 1. […] It was important that all media and supplements were sterilized prior to MICs. • 2. Prepared all media below and inoculated as described in next section. Tested all compounds against Mtb using each media. • a. […] 7H9+0.2% glycerol+2 g/L dextrose+0.85 g/L NaCl+0.003 g/L catalase (0% FBS). • c. 2×7H9+0.2% glycerol+2 g/L dextrose+0.85 g/L NaCl+0.003 g/L catalase combined with equal volume Fetal Bovine Serum (50% FBS).
Inoculum Prep: • 1. Using BBL Prompt, picked 5-10 well-separated colonies and inoculated 1 ml sterile saline that came in the kit. Typically plates were two to three weeks of age when used for this assay due to the slow growth of this organism in culture. • 2. Vortexed well, then sonicated in water bath for 30 sec providing a suspension of ˜10^8 cells/ml. Actual density could be confirmed by plating out dilutions of this suspension. • 3. Prepared inoculum in each of the three media formulations by diluting the BBL Prompt suspension 1/200 (for example: transferred 0.2 ml of cells to 40 ml of medium) to obtain a starting cell density of […]. • 4. Used 100 μl cells (˜5×10^4 cells) to inoculate each microtiter well containing 1 μl of drug in DMSO (see below).
Drug Dilutions, Inoculation, MIC Determination: • 1. Control drug stocks Isoniazid and Novobiocin were prepared at 10 mM in 100% DMSO while Ciprofloxacin and Rifampin were prepared at 1 mM in 50% DMSO and 100% DMSO, respectively. Prepared dilutions—dispensed 100 μL of the stock solution into the first column of a 96-well plate. Prepared 11-step, 2-fold serial dilutions across the row for each compound by transferring 50 μl from column 1 into 50 μl of DMSO in column 2. Continued to transfer 50 μL from column 2 through column 11 while mixing and changing tips at each column. Left column 12 with DMSO only as a control. • 2. Transferred 1 μl of each dilution into an empty microtiter well prior to the addition of 100 μl of cells. The starting concentration of Isoniazid and Novobiocin was 100 μM after the dilution into medium+cells; the starting concentration of Ciprofloxacin and Rifampin was 10 μM after the dilution into medium+cells. Compound concentrations decreased in 2× steps moving across the rows of the microtiter plate. […] Measured background fluorescence at Excitation 492 nm, Emission 595 nm and returned the plate to the incubator for another 24 hours.
After 24 hours the fluorescence of each well was measured at Excitation 492 nm, Emission 595 nm.
Percent inhibition by a given compound was calculated as follows: Percent inhibition=100−([well fluorescence-average background fluorescence]/[DMSO control−average background fluorescence]×100). […]

M. smegmatis = assay: MIC in bacterial broth culture (7H9 with ADC, visual or resazurin); format: cell-based; settings: Mycolicibacterium smegmatis, Table 31

**Q.** `CCNC(=O)Nc1nc2cc(-c3cnc(C(C)(C)O)nc3)c(F)c([C@H]3CCCO3)c2[nH]1` [Compound 23A, methanesulfonic acid salt of 1-ethyl-3-[6-fluoro-5-[2-(1-hydroxy-1-methyl-ethyl)pyrimidin-5-yl]-7-[(2R)-tetrahydrofuran-2-yl]-1H-benzimidazol-2-yl]urea] was tested. Which MIC ([1]; M. tuberculosis Erdman ATCC 35801, read-out: MIC) did it give?
**A.** The MIC was 0.03 µg/mL.

**Q.** And the MIC ([1]; M. tuberculosis Erdman ATCC 35801 with Mouse Serum)?
**A.** The MIC was 0.5 µg/mL.

**Q.** And the MIC (M. smegmatis)?
**A.** The MIC was 6.25 µg/mL.
